Assay results taken from patent US20030059797A1, “Animal model of and test for Alzheimer's disease” (priority 1999, published 2003).
Several values for one entry are separate records, joined by “and”; a condition that tells them apart may be missing. Equal values may be shown once.

Key:
tryptamine binding site = conditions: cited from earlier work; for binding to tryptamine site (in words): human cortical membrane preparation, Mousseau & Butterworth 1994
neuronal cell lines = conditions: Tanaka et al. 1998; cited from earlier work
SH SY5Y cells = experiment: Tryptamine treatment of epithelial-enriched and neuron-axon SH SY5Y cells, staining and electron microscopy; format: cell-based, human; conditions: 20-100 μg/ml tryptamine for 6-60 days, electron microscopy
Procedure: To examine control epithelial cells, which were not pretreated with inhibitors, neuroblastic and epithelial-enriched cells were separated from one another by exploiting a marked difference in adhesive properties. Biedler et al., Cancer Res. 33: 2643-2652 (1973). The weakly adherent neuroblasts were washed out with trypsin. The selected epithelial-enriched and tryptamine-differentiated neuron-axon cells were treated with 20-100 μg/ml tryptamine for 6-60 days and then stained. […] (Mouse anti-human PHF-tau, clone AT8 against epitope containing phosphorylated Ser202 was obtained from Innogenetics (Ghent, Belgium).)
To test whether TrpRS and tau co-localize in neurofibrillary tangles, fluorescent double labeling with AT8 and anti-TrpRS was performed. In acute-treated cells, the proteins were co-localized both in I-NFT-like encircled nuclei (FIG. 2e, f, i, and j) and E-NFT-like manifestations (FIG. 2g). In the perikarya of the control pretreated or untreated epithelial cells, few if any such formations were labeled (FIG. 2h and FIG. 2k). The staining is specific. The staining was absent in the control specimens probed with secondary antibodies (FIG. 2l).
To test whether tryptamine-induced manifestations are associated with neurofilaments, the cells were prepared either as a suspension (FIG. 2m) or as a monolayer and then analyzed by electron microscopy. […]

mice [1] = experiment: Observation of health and behavior of tryptamine-treated mice; format: in vivo
Procedure: (§1) An Alzheimer's disease mouse model was obtained by using intravenous injections of male mice at 8 weeks or age- and sex-matched mice with 1-500 micrograms of tryptamine every second day for at least 2.5 weeks. In one embodiment, mice are injected with 50 micrograms of tryptamine for 4 months. However, the duration of treatment, intervals between injections and concentrations of tryptamine can be successfully varied. Control mice are injected with phosphate-buffered saline.
The tryptamine-treated mice appear to be healthy in comparison to the control mice. The treated mice are clean and fat.

[2] = system: human neuroblastoma SH SY5Y cell line; experiment: Cultivation of SH SY5Y cells with TrpRS inhibitors; format: cell-based; conditions: for cell survival after cultivation with inhibitor: 50-100 μg/ml, 5 days, initial density 1×10^3 on 10-cm dishes
Procedure: The involvement of TrpRS inhibitors in neurofibrillary tangles formation was tested in the human neuroblastoma SH SY5Y cell line expressing tau. Tanaka et al., FEBS Lett. 426: 248-254 (1998). This cloned line comprises two morphologically distinct cell types: predominantly neuroblastic (bearing short neurites) and epithelial-like (lacking neurites). Biedler et al., Cancer Res. 33: 2643-2652 (1973). SH SY5Y cells were grown in 25 cm^2 flasks (TPP, Switzerland) in 5% CO2 at 37° C. in RPMI 1640 medium supplemented with 10% fetal calf serum, 100 u/ml penicillin, 100 μg/ml streptomycin, 0.25 μg/ml amphoterycin and 2 mM glutamine. The neuron/axon lines were isolated after seeding microscopically verified single […] cells.
Continuous treatment with lower concentrations of the inhibitors led to accumulation of large flattened, tightly substrate adherent epithelial-like cells lacking neurites, while the majority of neuroblasts died.
TrpRS was mainly localized in axons and to a less extent in the neuronal body and dendrites (wrs, FIG. 1e). […] In some sublines, however no neuroblasts were observed during 12 months cultivation without inhibitors (low panel, FIG. 1f).

TrpRS = experiment: Western blot of TrpRS in detergent-insoluble fraction of treated cells; format: cell-based, human; conditions: 6C10/C9 blot
Procedure: The involvement of tau and TrpRS in tryptamine-induced phenotypes was tested in extracts of control and treated cells. Triton extraction was performed as follows: Cells were lysed in 0.1 M Hepes buffer, pH 6.9, 0.5% Triton X100, 1 mM MgCl2, 0.1 mM EDTA, 2 mM EGTA, 1 mM DTT, 1 mM PMSF, 0.4 mg/ml aprotinin, 0.1 mg/ml antipain, leupeptin, pepstatin, and hemastatin, 0.1 μM okadaic acid, 10 mM sodium ortovanadate, and 50 mM sodium fluoride for 20 min in situ at room temperature. The detergent-insoluble fraction was collected with scraper and washed in the same buffer excluding inhibitors of phosphatases. The detergent-insoluble fraction was then solubilized in SDS-sample buffer at 100° C. for 5 min, and spun. […]
In the Western blot, both human recombinant ˜54 kDa and bovine ˜60 and ˜40-42 kDa (well-characterized proteolytic fragments) TrpRS reacted with 6C10/C9 and polyclonal antibodies (FIG. 3b), while poorly with 9D7. The main form and an additional high molecular weight TrpRS were induced in detergent-insoluble cytoskeleton by tryptamine treatment (right panel, FIG. 3c), whereas no difference was detected between acute-treated and pretreated cells (left and middle panels, FIG. 3c) when total extracts were analyzed. In the cytoskeleton of both treated and control cells, TrpRS was detected at a lower molecular weight than the cytoplasmic TrpRS (FIG. 3c). […]

mice [3] = experiment: Brain histology of tryptamine-treated mice (Congo Red, Gallyas silver staining); format: in vivo; conditions: intravenous, every second day, at least 2.5 weeks of treatment
Procedure: as §1
Immunochemical assays with control and tryptamine-treated mice. Following tryptamine treatment, the brains of the treated model mice and the control untreated mice were routinely fixed; sectioned, stained and analyzed microscopically, using commonly used well-established methods. The mouse brains were examined for Alzheimer's-like manifestations.
These manifestations were not found in the control mice.
FIG. 5 is a set of micrographs showing Congo Red staining and birefringence of sagittal sections from brains of tryptamine-treated mice. […] FIG. 6 is a set of micrographs showing silver staining of Alzheimer's neurofibrillary changes in the brain sections of tryptamine-treated mice.

mice [4] = experiment: Stability (balance) on narrow 1-cm stick; format: in vivo
Procedure: FIG. 7 is a set of tables and graphs showing measurements of the treated mice's behavior. The control and tryptamine-treated model mice were put on a narrow 1-cm diameter metallic stick. The time that mice balanced on the stick was measured in seconds. 66% of control versus 10% of treated mice kept on the stick for more than 6 seconds in the first experiment and 66% of control versus 20% of treated were for more than 13 seconds in the second experiment. Thus, the model mice were 6.6 times less balanced or coordinated than control.
FIG. 7 is a set of tables and graphs showing measurements of the treated mice's stability The control and tryptamine-treated model mice were put on a narrow 1 cm diameter metallic stick. The time of their presence on the stick was measured in seconds. […] Thus, the model mice are 6.6 times less balanced than control.

mice [5] = experiment: Running on a narrow stick, tryptamine-treated mice; format: in vivo; conditions: individual mouse
Procedure: as §1
Behavioral tests with control and tryptamine-treated mice. Behavioral assays with control and tryptamine-treated mice included tests for movement or coordination, sense of balance, orientation, and loss of interest. The behavioral tests in which the tryptamine-treated mice were tested included (a) a test of stable sitting (following 3 months of treatment), and (b) a test of running on a narrow stick (following 3, 4 and 6 months of the treatment). […] As shown in the testing this behavior of mice is age-dependent. […] The data obtained regarding behavior of the control and tryptamine-treated mice are in good agreement with later signs of Alzheimer's disease compared with normal signs of aging (Source: Alzheimer's Disease: early warning signs and diagnostic resources. The Junior League of NYC, Inc, 1988).
The model mice were made to run on a white metallic 80 cm stick having a diameter of 1 cm stick and placed 30 cm over the surface of a platform. Data in TABLE I are: (a) lag time (time that the mice were sitting at one end of the stick before beginning to run); (b) run time; and (c) the % of the stick that the mice successfully completed.

For NCCc1c[nH]c2ccc(O)cc12 [5-hydroxytryptamine], the “lower binding to tryptamine site than tryptamine” value (tryptamine binding site; relative to tryptamine) is listed as over 100.
In the case of COc1ccc2[nH]cc(CCN)c2c1 [5-methoxytryptamine], the “binding to tryptamine site (in words)” value (tryptamine binding site) is listed as “higher binding to tryptamine site compared with 5-hydroxytryptamine”.
In the case of CC(N)Cc1ccccc1 (stereo not shown) [amphetamine], the “binding to tryptamine site (in words)” value (tryptamine binding site) is listed as “higher affinity for the (+)-stereo isomer compared with (−)-isomer”.
In the case of C#CCN(C)[C@H](C)Cc1ccccc1 [deprenyl], the “binding to tryptamine site (in words)” value (tryptamine binding site) is given as “higher affinity for the (+)-stereo isomer compared with (−)-isomer”.
In the case of C=C1[C@@H](O)[C@@H]2O[C@]3(CC[C@H](/C=C/[C@@H](C)[C@@H]4CC(C)=C[C@@]5(O[C@H](C[C@@](C)(O)C(=O)O)CC[C@H]5O)O4)O3)CC[C@H]2O[C@@H]1[C@@H](O)C[C@H](C)[C@H]1O[C@@]2(CCCCO2)CC[C@H]1C [okadaic acid], the “effect on tau and neurofibrillary tangles” value (neuronal cell lines) is listed as “results only in tau hyperphosphorylation, but not neurofibrillary tangles”.
With NCCc1c[nH]c2ccccc12 [tryptamine] the “neurofibrillary tangles in treated cells” value (SH SY5Y cells) was “numerous neurofibrillary tangles were found”, the toxic effect (mice [1]; four months of treatment) was “do not show any toxic effect” and the aggressive behavior (mice [1]; in contrast to control mice) was “do not show aggressive behavior”. For the same molecule, the “cell survival after cultivation with inhibitor” value [2] was “all cells have died”, the “relative toxicity for neuroblasts and epithelial cells” value ([2]; SH SY5Y) was “more toxic for neuroblasts than for epithelial cells” and the “neurodifferentiation of epithelial cells” value ([2]; continuous treatment with lower concentrations, then cultivation without inhibitors) was “induces neurodifferentiation of the epithelial cells”. For the same molecule, the “binding to tryptamine site (in words)” value (tryptamine binding site) was “most potent inhibitor”, the “expression of cytoskeleton TrpRS forms” value (TrpRS) was “induces high expression of cytoskeleton TrpRS forms” and the “Alzheimer's-like manifestations in brain sections” value (mice [3]) was “Senile plaques, neurofibrillary tangles, and neuropil threads and fibrils were detected”. For the same molecule, the “% of treated mice kept on the stick for more than 6 seconds” value (mice [4]; first experiment, control 66%) was 10%, the “% of treated mice kept on the stick for more than 13 seconds” value (mice [4]; second experiment, control 66%) was 20% and the “times less balanced than control” value (mice [4]; treated versus control mice) was 6.6 times. The Run time (mice [5]; 80 cm stick, 1 cm diameter) was 2 seconds and 0 seconds (7×) and 10 seconds and 17 seconds, the Lag time (mice [5]; 80 cm stick, 1 cm diameter, time sitting at one end before beginning to run) was 50 seconds and 47 seconds and 11 seconds and 17 seconds and 13 seconds and 40 seconds and 3 seconds (2×) and 9 seconds and 15 seconds and the “% of the way” value (mice [5]; % of the stick successfully completed) was 40% and 0% (7×) and 20% and 50%.
For N[C@@H](Cc1c[nH]c2ccccc12)C(=O)O [tryptophan], the “binding to tryptamine site (in words)” value (tryptamine binding site) is given as “dramatically lower binding to trypatmine site than tryptamine”.
For N[C@H](CO)Cc1c[nH]c2ccccc12 [tryptophanol], the “cell survival after cultivation with inhibitor” value [2] was “all cells have died”.
